Data set [1] is described as follows: Pharmacokinetics study in rats after oral administration (plasma, LC-MS/MS). The settings on record: for CLZ / Cmax / VZ / half-life: mean ± SD, n = 6; for half-life: po. Type of data set: in vivo, Wistar rats. The procedure:
The liquid chromatographic separation process was operated on an XR LC-20AD Prominence^TM UFLC system (Shimadzu, Japan). At a column temperature at 40 °C, substances were analyzed on an Atlantis T3 (2.1 × 150 mm, 3 μm) column. The mobile phase system was water with 0.1% formic acid (A) and methanol with 0.1% formic acid (B). A flow rate of 0.4 mL/min and sample injection volume of 5 μL were used for gradient elution. The gradient elution program was established as follows: 0.01–0.3 min, 5% B; 0.3–0.8 min, 5–50% B; 0.8–1.5 min, 50–70% B; 1.5–2.8 min, 70–85% B; 2.8–5.0 min, 85% B; 5.0–5.01 min, 85–5% B; and 5.01–7.0 min, 5% B.
Mass spectrometry quantitative analysis was conducted on a Q TRAP 4000 MS/MS system to collect data, and then analyst software (version 1.6, AB Sciex, Framingham, MA, USA) was used to handle data. In the MRM mode and taking nitrogen as the circulating gas, electrospray positive ionization (ESI+) was used to analyze four substances. The detailed MS parameters were established as follows: gas 1, 50 psi; gas 2, 40 psi; air curtain gas, 40 psi; ion spray voltage, 5500 V; ion source temperature, 500 °C. Declustering potential (DP), entrance potential (EP), collision energy (CE), and cell exit potential (CXP) were performed as parameters optimized for substances in the MRM mode.
(§1) The plasma and urine samples were kept at indoor temperature and dissolved before analysis. First, 100 µL of sample was added to a 1.5 mL Eppendorf tube together with 10 µL of ISs solution. Then, 300 µL of methanol:acetonitrile (1:1, v/v) was added, vortexed for 3 min, sonicated for 2 min in an ice-water bath, and centrifuged for 8 min at 16,000 rpm to deposit protein. The supernatant was transferred to a 1.5 mL Eppendorf tube, desiccated under airflow at room temperature, re-dissolved in 50 μL methanol, vortexed for 3 min, sonicated for 5 min in an ice-water bath, and centrifuged for 8 min at 16,000 rpm for LC-MS/MS analysis. For tissue and fecal samples, 100 mg of each sample was precisely weighed and added to a 5 mL Eppendorf tube, then mixed with 1 mL normal saline. The tissue cells were destructed by homogenization to mix with normal saline sufficiently, and the homogenization was achieved after centrifugation for 10 min at 4000 rpm. The methods to precipitate the protein of tissue and feces homogenization were the same as those of the plasma samples.
Eighteen male Wistar rats were separated into three groups with six rats in every group based on different oral medicines, containing a β-CD-DM group (inclusion compounds of DM with β-CD), DM group (single DM), and β-CD group (single β-CD). Each rat was administered to orally, and the dosage of every group was computed by the equal transformation of human and rat surface area of the body by the clinical dosage; therefore, 6 mg/kg of the β-CD-DM group (DM:β-CD(6 mg/kg:393 mg/kg) mixed evenly), 6 mg/kg of the DM group, and 393 mg/kg of the β-CD group were obtained. Blood samples (250 μL) were obtained from the orbital venous plexus at 0, 0.083, 0.25, 0.5, 0.75, 1, 1.5, 2, 4, 6, 8, 12, 24, 36 h after oral delivery. Then, the blood was centrifuged for 10 min at 4000 rpm to obtain the separation of plasma, and the plasma was stored in at −80 ℃ before application. The plasma samples of the rats in each group were treated according to the contents of Section 2.4.1, and then analyzed according to Section 2.2.1. The plasma concentrations of β-CD, DM, ginsenoside Re (IS 1), and psoralen (IS 2) were calculated by the ratio of peak area between analytes and internal standards. The pharmacokinetic parameters of the three groups of analytes were handled by adopting pharmacokinetic software DAS 2.1 found on non-compartment analysis. Then, the obtained main pharmacokinetic parameters of every group were used for independent sample T-test with SPSS v24.0; p < 0.05 was considered as a difference, and p < 0.01 was considered as a significant difference.

For data set [2] the following is noted: cited from earlier work.
The nature of data set [3]: Tissue distribution study of β-CD in rats. The format is in vivo, Wistar rats. The method, then: as §1, with “The methods to precipitate the protein of tissue and feces homogenization were the same as those of the plasma samples.” left out
Eighteen male Wistar rats were separated into three groups with six rats in every group based on different times after administration, containing group A (30 min after oral administration), group B (1h after oral administration), and group C (4 h after oral administration). […] The tissue homogenization samples of the rats in each group were treated according to the contents of Section 2.4.1, and then analyzed according to Section 2.2.1.

The mark [4] stands for this setting: analyte DM in rat plasma, DM group (single DM), 6 mg/kg oral.
The mark [5] stands for this setting: analyte DM in rat plasma, β-CD-DM group (inclusion compounds, DM:β-CD 6 mg/kg:393 mg/kg) oral.
Where [6] appears, read: analyte β-CD in rat plasma, β-CD group (single β-CD), 393 mg/kg oral.
Where [7] appears, read: analyte β-CD in rat plasma, β-CD-DM group (inclusion compounds, DM:β-CD 6 mg/kg:393 mg/kg) oral.

Counter-ions that a name gives are not always drawn.

As usually defined, the half-life is how long it takes for the measured level to halve. Low values mean rapid decline, high ones slow decline. Take `COc1ccc2c(c1)[C@]13CCCC[C@@H]1[C@H](C2)N(C)CC3` [DM, Dextromethorphan hydrobromide, reference compound]: in data set [1] (setting [4]), the CLZ was 6.55 × 10^1 ± 8.60 L/h/Kg, the Cmax is listed as 2.91 × 10^1 ± 3.17 ng/mL/h and the VZ was determined as 1640 ± 996 L/kg. For the same compound, in data set [1] (setting [5]), the CLZ was 44.1 ± 12.5 L/h/kg, the Cmax was 3.27 × 10^1 ± 4.67 ng/mL/h and the VZ was 1900 ± 643 L/kg. Also, the half-life in data set [1] (male, Wistar, rat, in vivo, 6 mg/kg, analyte DM in rat plasma, DM group (single DM), 6 mg/kg oral) was 16.8 h. In data set [1] (male, Wistar, rat, in vivo, 6 mg/kg, analyte DM in rat plasma, β-CD-DM group (inclusion compounds, DM:β-CD 6 mg/kg:393 mg/kg) oral), this compound had a half-life of 30.4 h. Further, the water solubility result in data set [2] is reported as “poorly water-soluble”.

For `OC[C@H]1O[C@@H]2O[C@H]3[C@H](O)[C@@H](O)[C@@H](O[C@H]4[C@H](O)[C@@H](O)[C@@H](O[C@H]5[C@H](O)[C@@H](O)[C@@H](O[C@H]6[C@H](O)[C@@H](O)[C@@H](O[C@H]7[C@H](O)[C@@H](O)[C@@H](O[C@H]8[C@H](O)[C@@H](O)[C@@H](O[C@H]1[C@H](O)[C@H]2O)O[C@@H]8CO)O[C@@H]7CO)O[C@@H]6CO)O[C@@H]5CO)O[C@@H]4CO)O[C@@H]3CO` [β-CD, β-cyclodextrin], in data set [3] (393 mg/kg single oral, heart, liver, spleen, lung, kidney, sampled 30 min, 1 h, 4 h), the “time at which concentration in entire tissues reached its peak” value was 1 h. The accumulation in tissues entry in data set [3] (4 h after 393 mg/kg single oral, tissue concentration decreased significantly) is recorded as “without noticeable accumulation”. Moreover, the values for the CLZ in data set [1] (setting [6]) and in data set [1] (setting [7]) were 32.7 ± 10.2 L/h/kg and 3.03 × 10^1 ± 6.18 L/h/Kg, respectively. The figures for the VZ in data set [1] (setting [6]) and in data set [1] (setting [7]) were 400 ± 176 L/kg and 354 ± 71.6 L/kg, respectively. In addition, the half-life in data set [1] (male, Wistar, rat, plasma, 393 mg/kg, analyte β-CD in rat plasma, β-CD group (single β-CD), 393 mg/kg oral) is 8.33 ± 2.46 h; in data set [1] (male, Wistar, rat, plasma, 393 mg/kg, analyte β-CD in rat plasma, β-CD-DM group (inclusion compounds, DM:β-CD 6 mg/kg:393 mg/kg) oral), 8.21 ± 1.47 h. Also, the concentration at 30 min in data set [1] (male, Wistar, rat, plasma, 30 min after oral administration, 393 mg/kg, read-out: concentration of β-CD in rat plasma) is ~3500 ng/mL. Also, the concentration at 1 h in data set [1] (male, Wistar, rat, plasma, 1 h after oral administration, 393 mg/kg, tissue concentration similar, read-out: concentration of β-CD in rat plasma) was ~3000 ng/mL. In addition, in data set [1] (β-CD in rat plasma, oral, sampling to 36 h), the “AUC0–t as share of AUC0–∞” value is listed as “more than 96%”. For the same compound, in data set [1] (β-CD, oral administration), the “time until almost wholly removed from rat plasma” value was ≤ 36 h.

(Values after PMC8839615 (Molecules, 2022).)
